In patent US20150368248A1, “2-SUBSTITUTED-6-BIARYLMETHYLAMINO-9-CYCLOPENTYL-9H-PURINE DERIVATIVES, USE THEREOF AS MEDICAMENTS, AND PHARMACEUTICAL COMPOSITIONS” (UNIVERZITA PALACKEHO V OLOMOUCI, priority 2013, published 2015):
Where two headings read alike, the source gives them in different places. Blank lines part the entries; values can stand above or below the molecule they belong to.

Assays:
[1] = tested on: Hep3B; assay: MTT cytotoxicity assay (Example 30); assay type: cell-based, human; settings: MTT, three days after drug addition, read-out: Inhibitory concentration IC50, Hep3B
Method: (§1) Cytotoxicity of the compounds is the major property determining their anticancer effect in vivo. One of the parameters used, as the basis for cytotoxicity assays, is the metabolic activity of viable cells.
(§2) We have been using the following cell lines: HUH-7 and PLC/PRF/5 cell lines were maintained in DMEM supplemented with 10% fetal bovine serum, penicillin (100 U/ml) and streptomycin (100 μg/ml). […] HepG2 cell line was maintained in EMEM supplemented with 10% fetal bovine serum, sodium pyruvate (0.11 g/1), penicillin (100 U/ml) and streptomycin (100 μg/ml). All cell lines were cultivated at 37° C. in 5% CO2. For cytotoxicity assays, 3000 cells (10000 cells in case of HepG2 cell line) were seeded into each well of 96 well plate and the next day tested compounds were added at various concentrations in triplicates. Three days after drug addition MTT stock solution (5 mg/ml) was added into each well and incubated for 4 h. After this incubation period, produced formazan was dissolved by DMSO and final absorbance was measured at 570 nm with Synergy H4 Hybrid Multi-Mode Microplate Reader.

[2] = tested on: HCC-1.1 (3sp); assay: MTT cytotoxicity assay (Example 30); assay type: cell-based; settings: Homo sapiens, 72 h; MTT, three days after drug addition; read-out: Inhibitory concentration IC50, 3sp
Method: as §1, §2

[3] = tested on: human umbilical vein endothelial cells (HUVECs); assay: Migration scratch assay; assay type: cell-based; parameters: key to Wound area: ++: open; +: partly open; 0: closed; settings: 24 h
Method: Migration assay was performed as described previously (Krystof et al., 2011, Eur J Med Chem.; 46(9):4289-94). Briefly, confluent HUVECs were scratched and immediately treated for 24 h with various doses of compounds. After incubation each well was photographed using a DP Controller system (Olympus) connected to a Olympus BX50 microscope. Migration was expressed as the proportion of pixels of the wound area in the image that were not covered by cells using “in house” software.

[4] = tested on: caspase-3/7 activity in Hep3B cell line; assay: One-step cellular caspase-3/7 activity assay; assay type: cell-based, human; settings: 24 hours, 0 nM = 1.00
Method: (§3) Measurements of proapoptotic properties of new compounds were based on quantification of enzymatic activities of caspases, concretely caspases-3/7. Activity of cellular caspase-3/7 was measured according to Carrasco et al., 2003, BioTechniques, 34(5): 1064-67. Briefly, Hep3B and PLC/PRF/5 cells were incubated in the densities of 10000 cells/well in a 96-well plate overnight. Next day, the compounds in appropriate concentrations were added and cells were incubated for the 24 hours. After incubation, 3× caspase-3/7 assay buffer (150 mM HEPES pH 7.4, 450 mM NaCl, 150 mM KCl, 30 mM MgCl2, 1.2 mM EGTA, 1.5% Nonidet P40, 0.3% CHAPS, 30% sucrose, 30 mM DTT, 3 mM PMSF) with 150 μM Ac-DEVD-AMC as a substrate (Sigma-Aldrich) was added to the wells and plates were incubated at […]. The caspase-3/7 activity was measured after 6 hours using Fluoroskan Ascent microplate reader (Labsystems) at 346 nm/442 nm (excitation/emission).

[5] = tested on: caspase-3/7 activity in PLC/PRF/5 cell line; assay: One-step cellular caspase-3/7 activity assay; assay type: cell-based, human; settings: 24 hours incubation, relative to 0 nM = 1.00
Method: as §3

[6] = tested on: p53-regulated transcription in Arn8 cells; assay: p53-dependent transcriptional activity, β-galactosidase reporter; assay type: cell-based; settings: 24 h incubation
Method: Stronger anticancer activity of the compounds is enhanced by its positive impact on stability and activity of the tumour suppressor p53. To measure p53-dependent transcriptional activity, β-galactosidase activity was quantified in the melanoma cell line Arn8, which had been established using stable transfection of cells with a p53-responsive reporter construct pRGCAfoslacZ (Frebung et al., Cancer Res., 52, 1992-6976). Briefly, after 24 h incubation with the inhibitors the Arn8 cells were permeabilized with 0.3% Triton X-100 for 15 min and then 4-methylumbelliferon-β-D-galactopyranoside was added as a substrate to the final concentration of 80 μM. After 1 h the fluorescence of product 4-methylumbelliferon was measured at 355/460 nm (ex/em) with a Fluoroskan Ascent microplate reader (Labsystems). Data in Tab. 8 present that series of 2-substituted-6-biarylmethylamino-9-cyclopentyl-9H-purine derivatives show a dose-dependent activatory effect on p53-regulated transcription, with the maximum impact observed between 100 and 500 nM concentrations for most of prepared compounds (Tab. 8).

[7] = tested on: human umbilical vein endothelial cells (HUVEC); assay: HUVEC proliferation, Calcein AM; assay type: cell-based; settings: read-out: Inhibitory concentration for HUVEC cells - IC50
Method: Novel 2-substituted-6-biarylmethylamino-9-cyclopentyl-9H-purine derivatives were tested for their potential anti-angiogenic properties; we analyzed its influence on the proliferation (Tab. 9), migration and tube formation of human umbilical vein endothelial cells (HUVEC). Confluent HUVECs were seeded in 96-well microtiter plates to detect their proliferation for 24 or 72 h using Calcein AM solution (Invitrogen) and a Fluoroskan Ascent microplate reader (Labsystems) as described previously (Krystof et al., 2011, Eur J Med Chem. 2011 September; 46(9):4289-94).

[8] = tested on: HepG2; assay: MTT cytotoxicity assay (Example 30); assay type: cell-based; settings: Homo sapiens, HepG2, 72 h; MTT, three days after drug addition; read-out: Inhibitory concentration IC50, HepG2
Description: Cytotoxicity of the compounds is the major property determining their anticancer effect in vivo. One of the parameters used, as the basis for cytotoxicity assays, is the metabolic activity of viable cells. For example, a microtiter assay, which uses (3-(4,5-Dimethylthiazol-2-yl)-2,5-diphenyltetrazolium bromide (MTT), is widely used to quantitate cell proliferation and cytotoxicity. For instance, this assay is used in drug screening programs and in chemosensitivity testing. Because only metabolically active living cells reduce MTT to correspond purple formazan dye, these assays detect viable cells exclusively. The quantity of reduced MTT corresponds to the number of vital cells in the culture.
We have been using the following cell lines: HUH-7 and PLC/PRF/5 cell lines were maintained in DMEM supplemented with 10% fetal bovine serum, penicillin (100 U/ml) and streptomycin (100 μg/ml). Unique HCC-1.2 (3p) and HCC-1.1 (3sp) cell lines (Zilj et al., 2009, Future Oncol, 5(8):1169-79) and Hep3B cells were cultivated in RPMI supplemented with 10% fetal bovine serum, penicillin (100 U/ml) and streptomycin (100 μg/ml). HepG2 cell line was maintained in EMEM supplemented with 10% fetal bovine serum, sodium pyruvate (0.11 g/1), penicillin (100 U/ml) and streptomycin (100 μg/ml). All cell lines were cultivated at 37° C. in 5% CO2. For cytotoxicity assays, 3000 cells (10000 cells in case of HepG2 cell line) were seeded into each well of 96 well plate and the next day tested compounds were added at various concentrations in triplicates. Three days after drug addition MTT stock solution (5 mg/ml) was added into each well and incubated for 4 h. After this incubation period, produced formazan was dissolved by DMSO and final absorbance was measured at 570 nm with Synergy H4 Hybrid Multi-Mode Microplate Reader.

[9] = tested on: HCC-1.2 (3p); assay: MTT cytotoxicity assay (Example 30); assay type: cell-based; settings: Homo sapiens, HCC-1.2, 72 h; MTT, three days after drug addition; read-out: Inhibitory concentration IC50, 3p
Method: as §1, §2

[10] = tested on: HUH-7; assay: MTT cytotoxicity assay (Example 30); assay type: cell-based; settings: Homo sapiens, Huh-7, 72 h; MTT, three days after drug addition; read-out: Inhibitory concentration IC50, HUH-7
Method: as §1, §2

[11] = tested on: PLC/PRF/5; assay: MTT cytotoxicity assay (Example 30); assay type: cell-based; settings: Homo sapiens, PLC-PRF-5, 72 h; MTT, three days after drug addition; read-out: Inhibitory concentration IC50, PLC/PRF/5
Method: as §1, §2

Compound: Clc1nc(NCc2ccc(-c3ccco3)nc2)c2ncn(C3CCCC3)c2n1 [BP116, (2-chloro-9-cyclopentyl-9H-purine-6-yl)-(6-furan-2-yl-pyridin-3-ylmethyl)-amine]
IC50 ([1]; Homo sapiens, Hep3B, 72 h): 298 nM | melting point: 119 to 122 °C | IC50 [2]: 371 nM

Compound: Cn1cnc2c(NCc3ccccc3)nc(NCCO)nc21 [olomoucine, reference compound]
Wound area ([3]; 100 nM): 0 | Wound area ([3]; 1000 nM): 0

Compound: NC1CCC(Nc2nc(NCc3ccc(-c4ccccc4O)cc3)c3ncn(C4CCCC4)c3n2)CC1 (centres unmarked) [BP17, N^2-(4-amino-cyclohexyl)-9-cyclopentyl-N^6-(2′-hydroxy-biphenyl-4-ylmethyl)-9H-purine-2,6-diamine]
Relative caspase-3/7 activity in Hep3B cell line ([4]; 200 nM): 0.89 | Relative caspase-3/7 activity in Hep3B cell line ([4]; 400 nM): 0.87 | Relative caspase-3/7 activity in Hep3B cell line ([4]; 800 nM): 0.96 | Relative caspase-3/7 activity in Hep3B cell line ([4]; 1600 nM): 0.63 | Relative caspase-3/7 activity in PLC/PRF/5 cell line ([5]; compound concentration 160 nM): 1.08 | Relative caspase-3/7 activity in PLC/PRF/5 cell line ([5]; compound concentration 320 nM): 1.09 | Relative caspase-3/7 activity in PLC/PRF/5 cell line ([5]; compound concentration 640 nM): 0.99 | Relative caspase-3/7 activity in PLC/PRF/5 cell line ([5]; compound concentration 1280 nM): 1.20 | Concentration of maximum activation [6]: 950 nM | melting point: 168 to 170 °C

Compound: CC(C)(O)CNc1nc(NCc2ccc(-c3ccco3)cc2)c2ncn(C3CCCC3)c2n1 [BP115, 1-[9-Cyclopentyl-6-(4-furan-2-yl-benzylamino)-9H-purine-2-ylamino]-2-methyl-propan-2-ol]
Relative caspase-3/7 activity in Hep3B cell line ([4]; 200 nM): 0.94 | Relative caspase-3/7 activity in Hep3B cell line ([4]; 400 nM): 1.05 | Relative caspase-3/7 activity in Hep3B cell line ([4]; 800 nM): 1.19 | Relative caspase-3/7 activity in Hep3B cell line ([4]; 1600 nM): 0.81 | Relative caspase-3/7 activity in PLC/PRF/5 cell line ([5]; compound concentration 160 nM): 1.17 | Relative caspase-3/7 activity in PLC/PRF/5 cell line ([5]; compound concentration 320 nM): 1.05 | Relative caspase-3/7 activity in PLC/PRF/5 cell line ([5]; compound concentration 640 nM): 0.88 | Relative caspase-3/7 activity in PLC/PRF/5 cell line ([5]; compound concentration 1280 nM): 0.98 | Concentration of maximum activation [6]: 870 nM | melting point: 121 to 123 °C

Compound: CC[C@H](CO)Nc1nc(NCc2ccccc2)c2ncn(C(C)C)c2n1 [roscovitine, reference compound]
Wound area ([3]; 100 nM): 0 | Wound area ([3]; 1000 nM): 0 | Concentration of maximum activation [6]: >10000 nM

Compound: Clc1nc(NCc2ccc(Br)cc2)c2ncn(C3CCCC3)c2n1 [BP101, (4-bromo-benzyl)-(2-chloro-9-cyclopentyl-9H-purine-6-yl)-amine]
melting point: 152 to 154 °C

Compound: CC(C)(O)CNc1nc(NCc2ccc(Br)cc2)c2ncn(C3CCCC3)c2n1 [BP114, 1-[6-(4-bromo-benzylamino)-9-cyclopentyl-9H-purine-2-ylamino]-2-methyl-propan-2-ol]
melting point: 108 to 110 °C

Compound: CCC(CO)Nc1nc(NCc2ccc(-c3ccccn3)cc2)c2ncn(C(C)C)c2n1 (centres unmarked) [CR8, reference compound]
Wound area ([3]; 100 nM): 0 | Wound area ([3]; 1000 nM): + | IC50 [1]: > 2000 nM | Concentration of maximum activation [6]: 1600 nM | IC50 ([7]; 24 h): > 50000 nM | IC50 ([7]; 72 h): 610 nM

Compound: NC1CCC(Nc2nc(NCc3ccc(Br)cc3)c3ncn(C4CCCC4)c3n2)CC1 (centres unmarked) [BP102, N^2-(4-amino-cyclohexyl)-N^6-(4-bromo-benzyl)-9-cyclopentyl-9H-purine-2,6-diamine]
IC50 ([1]; Homo sapiens, Hep3B, 72 h): 268 nM | IC50 [8]: > 1000 nM | IC50 [9]: 492 nM | IC50 [10]: 386 nM | IC50 [11]: 644 nM | IC50 [2]: 441 nM

The next lines start with results.

melting point: 178 to 179 °C
Compound: Clc1nc(NCc2ccc(Br)nc2)c2ncn(C3CCCC3)c2n1

melting point: 135 to 137 °C
Compound: Clc1nc(NCc2ccc(-c3ccco3)cc2)c2ncn(C3CCCC3)c2n1 [BP118, (2-chloro-9-cyclopentyl-9H-purine-6-yl)-(4-furan-2-yl-benzyl)-amine]

melting point: 111 to 114 °C
Compound: Clc1nc(NCc2ccc(-c3cccs3)nc2)c2ncn(C3CCCC3)c2n1 [BP29, (2-chlor-9-cyclopentyl-9H-purine-6-yl)-(6-thiophen-2-yl-pyridin-3-ylmethyl)-amine]
IC50 ([1]; Homo sapiens, Hep3B, 72 h): 792 nM | IC50 [2]: 843 nM

melting point: 165 to 167 °C
Compound: Clc1nc(NCc2ccc(-n3cccn3)cc2)c2ncn(C3CCCC3)c2n1 [BP23, (2-chlor-9-cyclopentyl-9H-purine-6-yl)-(4-pyrazol-1-yl-benzyl)-amine]
IC50 ([1]; Homo sapiens, Hep3B, 72 h): 432 nM | IC50 [2]: 468 nM
